Values quoted from earlier work, collected in patent publication US9820973B2, “Pharmaceutical formulation comprising losartan potassium and chlorthalidone” (Merck Sharp & Dohme B.V., priority 2013, dated 2017).

Row | Solubility (in words) (across the physiologic pH range) | Dissolution of the salt (in words) (neutral to basic media) | SMILES | Behaviour of the salt (in words) (acidic media)
1 | low solubility | – | NS(=O)(=O)c1cc(C2(O)NC(=O)c3ccccc32)ccc1Cl (racemic) [chlorthalidone, (RS)-2-chloro-5-(1-hydroxy-3-oxo-2,3-dihydro-1H-isoindol-1-yl)benzene-1-sulfonamide] | –
2 | – | readily dissolves | CCCCc1nc(Cl)c(CO)n1Cc1ccc(-c2ccccc2-c2nnn[nH]2)cc1 [Losartan potassium, 2-butyl-4-chloro-1-[p-(o-1H-tetrazol-5-ylphenyl)-benzyl]imidazole-5-methanol] | the salt dissociates and the losartan free acid precipitates as a gel layer
